We go through 25 molecules from patent publication US20200071326A1, “TAM KINASE INHIBITORS” (Syros Pharmaceuticals, Inc., priority 2017, published 2020).

The target of one test is T1, FLT3 (Homo sapiens, UniProt P36888).
T1 sequence (P36888 27-993): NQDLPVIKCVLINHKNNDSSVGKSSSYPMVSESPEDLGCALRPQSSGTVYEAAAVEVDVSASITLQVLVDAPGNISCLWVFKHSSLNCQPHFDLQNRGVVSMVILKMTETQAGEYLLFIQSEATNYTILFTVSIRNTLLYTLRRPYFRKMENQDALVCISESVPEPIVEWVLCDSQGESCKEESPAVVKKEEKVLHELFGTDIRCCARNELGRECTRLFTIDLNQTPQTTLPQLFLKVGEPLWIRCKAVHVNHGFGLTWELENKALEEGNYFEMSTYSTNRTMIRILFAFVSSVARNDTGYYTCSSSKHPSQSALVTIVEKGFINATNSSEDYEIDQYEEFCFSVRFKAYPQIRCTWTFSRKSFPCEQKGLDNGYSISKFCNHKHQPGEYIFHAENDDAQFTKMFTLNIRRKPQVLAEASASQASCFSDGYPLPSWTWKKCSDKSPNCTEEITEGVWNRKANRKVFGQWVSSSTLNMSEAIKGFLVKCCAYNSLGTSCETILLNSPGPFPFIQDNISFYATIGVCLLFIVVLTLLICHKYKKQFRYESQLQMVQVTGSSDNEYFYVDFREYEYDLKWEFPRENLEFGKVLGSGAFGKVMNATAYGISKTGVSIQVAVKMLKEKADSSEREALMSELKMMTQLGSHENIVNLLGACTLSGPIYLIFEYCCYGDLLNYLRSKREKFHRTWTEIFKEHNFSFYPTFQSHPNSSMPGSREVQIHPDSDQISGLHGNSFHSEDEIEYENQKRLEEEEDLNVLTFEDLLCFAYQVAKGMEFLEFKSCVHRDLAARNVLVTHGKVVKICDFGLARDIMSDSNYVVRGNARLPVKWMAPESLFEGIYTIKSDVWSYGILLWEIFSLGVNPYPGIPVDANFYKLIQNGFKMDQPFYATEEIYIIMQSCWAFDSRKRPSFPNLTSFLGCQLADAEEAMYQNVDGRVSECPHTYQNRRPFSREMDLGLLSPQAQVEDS
Briefly: IMAP fluorescence polarization kinase assay, FLT3. The class given is biochemical. The following applies: ATP 2.74 μM, enzyme 2.5 nM, 240 minutes, read-out: FLT3 inhibitory constant (Ki). As for the experimental part: (§1) Activities of compounds against each of TYRO3, AXL, and MERTK as well as against FLT3, were determined using an immobilized metal ion affinity-based fluorescence polarization (“IMAP”) assay. A fluorescently-labeled substrate peptide was phosphorylated in the kinase reaction, after which a binding solution containing large trivalent metal-based nanoparticles was added and the phosphorylated substrate binds to these beads. This reduces the rotational speed of the substrate which is then detected using fluorescence polarization as a read-out.
(§2) The substrates used for each enzyme are as follows: AXL: 5F1-KKKKEEIYFFFG-NH2(SEQ ID NO:1); FLT3: 5F1-KKKKEEIYFFF-NH2 (SEQ ID NO:2); MERTK: 5F1-EFPIYDFLPAKKK-NH2 (SEQ ID NO:3); and TYRO3: 5F1-EFPIYDFLPAKKK-NH2 (SEQ ID NO:4).
(§3) This assay was performed in a 384-well, polystyrene microplate in a final volume of 8 μl. Substrate (final concentration=400 nM), ATP (final concentrations=24.7μM for AXL; 2.74 μM for FLT3; 2.69 μM for MERTK; and 54.0 μM for TYRO3), compounds and enzyme (final concentrations=2.5 nM for AXL, FLT3 and TYRO3; 1.5 nM for MERTK) were pipetted in this order into the appropriate reaction buffer (AXL: 50 mM HEPES, pH 8.0, 1 mM DTT, 10 mM MgCl2, 0.01% BRU35, 0.01% Triton X-100; FLT3: 50 mM HEPES, pH 8.0, 1 mM DTT, 10 mM MgCl2, 0.01% Triton X-100, 0.01% NP40; MERTK/TYRO3: 50 mM HEPES, pH 8.0, 1 mM DTT, 10 mM MgCl2, 0.01% Triton X-100) and incubated at room temperature for varying times (AXL, FLT3 and MERTK: 240 minutes; TYRO3: 60 minutes). IMAP binding solution was then dispensed, the plate incubated for 60 minutes at room temperature and the fluorescence polarization measured. Data were analyzed using XLfit.
On the technique in general: Polarisation of emitted light reports the rotation of a fluorescent probe.

In another test the target is T2, AXL (Homo sapiens, UniProt P30530).
T2 sequence (P30530 26-894): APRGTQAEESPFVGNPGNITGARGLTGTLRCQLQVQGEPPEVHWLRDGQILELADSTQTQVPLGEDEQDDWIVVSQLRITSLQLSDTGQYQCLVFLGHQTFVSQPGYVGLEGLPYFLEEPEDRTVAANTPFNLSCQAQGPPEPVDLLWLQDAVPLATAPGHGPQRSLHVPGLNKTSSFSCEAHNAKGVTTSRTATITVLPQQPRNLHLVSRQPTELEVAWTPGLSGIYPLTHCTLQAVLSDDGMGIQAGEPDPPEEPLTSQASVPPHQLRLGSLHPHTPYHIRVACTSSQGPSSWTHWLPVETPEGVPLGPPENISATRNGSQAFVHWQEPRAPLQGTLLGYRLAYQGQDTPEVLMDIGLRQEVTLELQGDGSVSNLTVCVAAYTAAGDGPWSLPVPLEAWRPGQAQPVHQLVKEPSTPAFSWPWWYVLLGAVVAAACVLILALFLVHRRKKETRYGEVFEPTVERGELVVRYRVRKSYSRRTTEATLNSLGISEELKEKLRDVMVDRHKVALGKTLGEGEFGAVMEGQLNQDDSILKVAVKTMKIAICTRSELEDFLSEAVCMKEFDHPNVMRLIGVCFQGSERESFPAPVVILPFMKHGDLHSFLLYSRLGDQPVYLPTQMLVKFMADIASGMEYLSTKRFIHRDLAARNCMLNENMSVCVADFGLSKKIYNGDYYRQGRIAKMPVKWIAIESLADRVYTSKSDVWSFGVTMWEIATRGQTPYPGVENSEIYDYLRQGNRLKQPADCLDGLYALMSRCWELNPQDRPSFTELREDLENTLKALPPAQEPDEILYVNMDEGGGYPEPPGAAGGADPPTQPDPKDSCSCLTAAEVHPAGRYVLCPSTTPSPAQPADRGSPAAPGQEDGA
Nature of the test: IMAP fluorescence polarization kinase assay, AXL. The class given is biochemical. The following applies: ATP 24.7 μM, enzyme 2.5 nM, 240 minutes, read-out: AXL inhibitory constant (Ki). On the procedure:
as §1, §2, §3

Structures can show the parent of a compound that is named as a salt.

`CCCc1cc2c(N[C@H]3CC[C@H](N)CC3)c(C(=O)Nc3ccc(F)cc3)cnc2[nH]1` [Compound 100, 4-(((1r,4r)-4-aminocyclohexyl)amino)-N-(4-fluorophenyl)-2-propyl-1H-pyrrolo [2,3-b]pyridine-5-carboxamide hydrochloride]: the Ki on FLT3 is less than 100 nM; at AXL, 1000 to 10000 nM.
For `CCCc1cc2c(N[C@H]3CC[C@H](O)CC3)c(C(=O)Nc3ccc(F)cc3)cnc2[nH]1` [Compound 101], the results for the inhibitory constant (Ki) at FLT3 and at AXL were 100 to 1000 nM and more than 10000 nM, respectively.
Regarding `CCCc1cc2c(N[C@H]3CC[C@H](O)CC3)c(C(=O)NCc3ccc(-n4ccnc4)cc3)cnc2[nH]1` [Compound 102], the inhibitory constant (Ki) at FLT3 was less than 100 nM; at AXL, 100 to 1000 nM.
For `Cc1cc2c(N[C@H]3CC[C@H](N)CC3)c(C(=O)Nc3ccc(F)cc3)cnc2[nH]1` [Compound 103], in that order: less than 100 nM and 100 to 1000 nM.
For `CCCc1cc2c(N[C@H]3CC[C@H](O)CC3)c(C(=O)NC3CCN(c4ncccn4)CC3)cnc2[nH]1` [Compound 104], in that order: 100 to 1000 nM and 1000 to 10000 nM.
For `CCCc1cc2c(N[C@H]3CC[C@H](O)CC3)c(-c3ccc(CN4CCOCC4)cn3)cnc2[nH]1` [Compound 105], in that order: less than 100 nM and 100 to 1000 nM.
On to `CCCc1cc2c(N[C@H]3CC[C@H](O)CC3)c(-c3ccc(CN4CCOCC4)cc3)cnc2[nH]1` [Compound 106, (1r,4r)-4-((5-(4-(morpholinomethyl)phenyl)-2-propyl-1H-pyrrolo[2,3-b]pyridin-4-yl)amino)cyclohexanol hydrochloride], for which the figures for the Ki on FLT3 and on AXL were 100 to 1000 nM and more than 10000 nM, respectively.
For `CCCc1cc2c(N[C@H]3CC[C@H](O)CC3)c(-c3cnn(CCN(C)C)c3)cnc2[nH]1` [Compound 107], in that order: 100 to 1000 nM and 1000 to 10000 nM.
For `CCCc1cc2c(N[C@H]3CC[C@H](N)CC3)c(-c3cnn(C)c3)cnc2[nH]1` [Compound 108, (1r,4r)-N1-(5-(1-methyl-1H-pyrazol-4-yl)-2-propyl-1H-pyrrolo[2,3-b]pyridine-4-yl)cyclohexane-1,4-diamine hydrochloride], in that order: 100 to 1000 nM and 1000 to 10000 nM.
Turning to `CCCc1cc2c(N[C@H]3CC[C@H](O)CC3)c(-c3ccc(CNCC45C[C@H]6C[C@@H](C4)C[C@@H](C5)C6)cn3)cnc2[nH]1` [Compound 109], the results for the inhibition constant Ki at FLT3 and at AXL were less than 100 nM and 100 to 1000 nM, respectively.
The like results for `N[C@H]1CC[C@H](Nc2c(C(=O)NCc3ccc(-n4ccnc4)cc3)cnc3[nH]c(-c4ccccc4)cc23)CC1` [Compound 110] were, in that order, 1000 to 10000 nM and 1000 to 10000 nM.
On to `CCCc1cc2c(N[C@H]3CC[C@H](N)CC3)c(-c3cc(NC)ncn3)cnc2[nH]1` [Compound 111, (1r,4r)-N^1-(5-(6-(methylamino)pyrimidin-4-yl)-2-propyl-1H-pyrrolo[2,3-b]pyridine-4-yl)cyclohexane-1,4-diamine hydrochloride], for which the Ki on FLT3 is less than 100 nM; at AXL, 100 to 1000 nM.
With `CCCc1cc2c(N[C@H]3CC[C@H](N)CC3)c(-c3cc(NC(C)C)ncn3)cnc2[nH]1` [Compound 112], the results for the Ki at FLT3 and on AXL were less than 100 nM and 100 to 1000 nM, respectively.
Regarding `CCCc1cc2c(N[C@H]3CC[C@H](N)CC3)c(-c3ccccn3)cnc2[nH]1` [Compound 113], the Ki was less than 100 nM at FLT3 and 1000 to 10000 nM on AXL.
With `CCCc1cc2c(N[C@H]3CC[C@H](N)CC3)c(-c3ccc(F)cn3)cnc2[nH]1` [Compound 114], the inhibitory constant (Ki) is less than 100 nM at FLT3 and 100 to 1000 nM at AXL.
For `CCCc1cc2c(N[C@H]3CC[C@H](N)CC3)c(-c3ccc(S(=O)(=O)N4CCOCC4)cn3)cnc2[nH]1` [Compound 115], the Ki on FLT3 and on AXL was less than 100 nM throughout.
For the molecule `CCCc1cc2c(N[C@H]3CC[C@H](N)CC3)c(-c3cc(N)ncn3)cnc2[nH]1` [Compound 116], the results for the Ki on FLT3 and at AXL were less than 100 nM and 100 to 1000 nM, respectively.
For `CCCc1cc2c(N[C@H]3CC[C@H](N)CC3)c(-c3nccs3)cnc2[nH]1` [Compound 117], in that order: less than 100 nM and 100 to 1000 nM.
In the case of `CCCc1cc2c(N[C@H]3CC[C@H](N)CC3)c(-c3ccnc(N4CCCC4)n3)cnc2[nH]1` [Compound 118, (1r,4r)-N1-(2-propyl-5-(2-(pyrrolidin-1-yl)pyrimidin-4-yl)-1H-pyrrolo[2,3-b]pyridine-4-yl)cyclohexane-1,4-diamine hydrochloride], the inhibitory constant (Ki) on FLT3 is less than 100 nM; at AXL, 100 to 1000 nM.
On to `CCc1cc2c(N[C@H]3CC[C@H](N)CC3)c(C(=O)NCc3ccc(-n4ccnc4)cc3)cnc2[nH]1` [Compound 119, N-(4-(1H-imidazol-1-yl)benzyl)-4-(((1r,4r)-4-aminocyclohexyl)amino)-2-ethyl-1H-pyrrolo[2,3-b]pyridine-5-carboxamide], for which the Ki at FLT3 was less than 100 nM; at AXL, 100 to 1000 nM.
The like results for `CCCc1cc2c(N[C@H]3CC[C@H](N)CC3)c(-c3ccc(N)cn3)cnc2[nH]1` [Compound 120] were, in that order, less than 100 nM and 1000 to 10000 nM.
The like results for `CCCc1cc2c(N[C@H]3CC[C@H](N)CC3)c(C(=O)NCc3ccc(-n4ccnc4)cc3)cnc2[nH]1` [Compound 121] were, in that order, less than 100 nM and 100 to 1000 nM.
The like results for `CCCc1cc2c(N[C@H]3CC[C@H](N)CC3)c(-c3cc(OC)ncn3)cnc2[nH]1` [Compound 122] were, in that order, less than 100 nM and 100 to 1000 nM.
On to `CCCc1cc2c(N[C@H]3CC[C@H](N)CC3)c(-c3ccnc(N)n3)cnc2[nH]1` [Compound 123], for which the Ki on FLT3 and on AXL was less than 100 nM each time.
Take `CCCc1cc2c(N[C@H]3CC[C@H](N)CC3)c(C(=O)NC3CCOCC3)cnc2[nH]1` [Compound 124]: the Ki on FLT3 and at AXL was 100 to 1000 nM in each case.

Broadly, the Ki is the dissociation constant of the complex between target and ligand, obtained from inhibition or displacement.
